Source: patent US10150743B2, “Carboxylic acid compounds” (priority 2012, dated 2018)

Legend:
CT26 mouse tumour cells = assay: Survival studies in CT26, a murine syngeneic colon carcinoma tumour model; assay type: in vivo; details: Balb/C mice; RT 2Gy x5 plus 5 mg/kg once a week i.v.; vs control or RT; FIG. 13
Procedure: Experiments were conducted on female mice (Balb/C genotype, at least 5 weeks old). CT26 mouse tumour cells (CRL-2638) were purchased from ATCC. CT26 mouse tumour cells (1×10^6) were implanted subcutaneously in the flank of mice on day 0. Mice in radiotherapy alone (RT) group and combination group were anesthetized and received radiation therapy (2Gy) at days 7, 8, 9, 10, and 11. Mice in combination group were also treated with a compound of Example 3 (30 mg/kg once a week) administered orally (p.o.) or Example 4 (5 mg/kg once a week) administered intravenously (i. v.) on days 7, 14, 22, and 27. Tumour volumes were assessed at least twice weekly by bilateral vernier caliper measurements. Survival period was determined by the time taken for tumours to reach 4 times the volume at the time of treatment.

human TLR8 = human TLR8 (Homo sapiens (Human), UniProt Q9NR97); assay: Human TLR8 assay (TLR8/NF-kB/SEAPorter HEK 293 Cell Line); assay type: cell-based; details: SEAP induction, overnight incubation at 37° C., 0.1% DMSO; read-out: TLR8 pEC50 (converted)
human TLR8, sequence (Q9NR97 27-1041): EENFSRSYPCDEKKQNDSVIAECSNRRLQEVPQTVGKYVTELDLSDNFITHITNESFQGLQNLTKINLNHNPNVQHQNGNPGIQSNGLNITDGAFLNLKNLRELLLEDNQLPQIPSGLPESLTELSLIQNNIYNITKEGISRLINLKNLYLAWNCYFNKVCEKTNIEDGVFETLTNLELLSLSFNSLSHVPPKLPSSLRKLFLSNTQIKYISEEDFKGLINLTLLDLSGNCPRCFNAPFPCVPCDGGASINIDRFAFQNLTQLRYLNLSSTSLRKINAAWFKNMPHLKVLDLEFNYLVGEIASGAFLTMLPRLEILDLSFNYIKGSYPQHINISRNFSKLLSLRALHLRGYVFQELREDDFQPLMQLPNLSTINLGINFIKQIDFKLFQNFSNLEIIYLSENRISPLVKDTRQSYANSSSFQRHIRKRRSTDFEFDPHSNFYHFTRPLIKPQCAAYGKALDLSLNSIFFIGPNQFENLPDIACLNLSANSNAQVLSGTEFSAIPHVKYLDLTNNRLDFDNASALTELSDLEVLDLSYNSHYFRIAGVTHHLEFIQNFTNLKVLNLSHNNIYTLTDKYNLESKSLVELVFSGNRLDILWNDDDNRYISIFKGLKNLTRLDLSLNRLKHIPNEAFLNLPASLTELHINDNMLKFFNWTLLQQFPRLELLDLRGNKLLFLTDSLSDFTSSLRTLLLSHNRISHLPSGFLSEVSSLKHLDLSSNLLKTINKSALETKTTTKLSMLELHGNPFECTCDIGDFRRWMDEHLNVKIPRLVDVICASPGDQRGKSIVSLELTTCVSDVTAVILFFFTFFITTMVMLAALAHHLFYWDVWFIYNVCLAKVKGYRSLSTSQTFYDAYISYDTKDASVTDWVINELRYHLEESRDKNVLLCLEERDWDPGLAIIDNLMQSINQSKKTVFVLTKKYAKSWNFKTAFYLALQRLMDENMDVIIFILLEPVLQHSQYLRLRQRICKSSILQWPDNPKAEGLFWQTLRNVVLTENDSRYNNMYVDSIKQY
From the text: TLR8/NF-kB/SEAPorter™ HEK 293 Cell Line (Imgenex Corporation) is a stably co-transfected cell line which expresses full-length human TLR8 and the secreted alkaline phosphatase (SEAP) reporter gene under the transcriptional control of an NF-κB response element. TLR8 expression in this cell line has been tested by flow cytometry. Transfectants with stable expression were selected using the antibiotic blasticidin and geneticin. TLR signaling leads to the translocation of NF-κB and activation of the promoter results in expression of the SEAP gene. TLR8-specific activation was assessed by determining the level of SEAP produced following overnight incubation of the cells at 37° C. with the standard compound in the presence of 0.1% (v/v) dimethylsulfoxide (DMSO). Concentration dependent induction of SEAP production by compounds was expressed as the concentration of compound which produced half of the maximal level of SEAP induction for that compound (EC50).

Renca mouse tumour cells = assay: Tumour growth studies in Renca, a murine syngeneic renal carcinoma tumour model; assay type: in vivo; details: Balb/C mice, 3 mg/kg once a week p.o. on days 1, 8, 15; vs 0.5% methylcellulose; FIG. 10
Procedure: Experiments were conducted on female mice (Balb/C genotype, at least 5 weeks old). Renca mouse tumour cells (Cancer Chemother Pharmacol. 1995; 36 (1): 7-12) were kindly provided by Dr. T. Fujioka at Department of Urology, Iwate Medical University School of Medicine. Renca mouse tumour cells (5×10^4) were implanted subcutaneously in the flank of mice on day 0. Mice were treated with either drug vehicle (0.5% methylcellulose), the compound of Example 3 (0.3 mg/kg once a week) or the compound of Example 4 (3 mg/kg once a week) administered orally (p. o.) on days 1, 8, and 15. Tumour volumes were assessed at least twice weekly by bilateral vernier caliper measurements.
Tumour growth inhibition from the start of treatment was assessed by comparison of the differences in tumour growth rate between control and the compound of Example 3 treated groups, as shown in FIG. 9.
Tumour growth inhibition from the start of treatment was assessed by comparison of the differences in tumour growth rate between control and the compound of the Example 4 treated groups, as shown in FIG. 10.

human TLR7 = human TLR7 (Homo sapiens (Human), UniProt Q9NYK1); assay: Human TLR7 assay (SEAP reporter in HEK293); assay type: cell-based; details: SEAP induction, overnight incubation at 37° C., 0.1% DMSO; read-out: TLR7 (pEC50) (converted)
human TLR7, sequence (Q9NYK1 27-1049): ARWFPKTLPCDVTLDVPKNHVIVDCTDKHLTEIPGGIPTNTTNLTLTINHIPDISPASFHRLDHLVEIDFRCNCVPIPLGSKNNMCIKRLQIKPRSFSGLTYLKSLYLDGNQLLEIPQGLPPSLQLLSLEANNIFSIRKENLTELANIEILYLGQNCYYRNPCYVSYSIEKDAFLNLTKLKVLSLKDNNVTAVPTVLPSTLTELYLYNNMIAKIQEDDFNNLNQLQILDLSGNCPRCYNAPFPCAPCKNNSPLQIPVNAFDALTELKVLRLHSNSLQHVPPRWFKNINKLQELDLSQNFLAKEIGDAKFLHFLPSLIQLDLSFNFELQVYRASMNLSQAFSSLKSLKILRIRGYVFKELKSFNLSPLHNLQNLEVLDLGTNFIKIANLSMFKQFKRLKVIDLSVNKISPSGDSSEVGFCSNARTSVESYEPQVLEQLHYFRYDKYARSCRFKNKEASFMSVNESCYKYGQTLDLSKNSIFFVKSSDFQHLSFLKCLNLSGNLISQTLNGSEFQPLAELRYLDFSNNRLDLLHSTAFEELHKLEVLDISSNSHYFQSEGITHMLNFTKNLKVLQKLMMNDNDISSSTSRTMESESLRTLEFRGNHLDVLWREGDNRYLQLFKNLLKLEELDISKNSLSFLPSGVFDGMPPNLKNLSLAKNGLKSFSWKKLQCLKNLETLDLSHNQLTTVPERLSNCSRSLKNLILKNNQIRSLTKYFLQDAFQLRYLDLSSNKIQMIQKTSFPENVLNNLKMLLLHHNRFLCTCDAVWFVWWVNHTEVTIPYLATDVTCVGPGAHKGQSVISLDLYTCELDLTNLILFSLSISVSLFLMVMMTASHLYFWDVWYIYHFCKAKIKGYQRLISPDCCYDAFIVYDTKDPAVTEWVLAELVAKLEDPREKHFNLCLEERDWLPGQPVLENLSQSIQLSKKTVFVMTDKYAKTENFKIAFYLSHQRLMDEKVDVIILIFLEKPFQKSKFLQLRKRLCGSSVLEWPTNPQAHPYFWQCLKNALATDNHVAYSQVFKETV
From the text: Recombinant human TLR7 was stably expressed in a HEK293 cell line already stably expressing the pNiFty2-SEAP reporter plasmid; integration of the reporter gene was maintained by selection with the antibiotic zeocin. The most common variant sequence of human TLR7 (represented by the EMBL sequence AF240467) was cloned into the mammalian cell expression vector pUNO and transfected into this reporter cell-line. Transfectants with stable expression were selected using the antibiotic blasticidin. In this reporter cell-line, expression of secreted alkaline phosphatase (SEAP) is controlled by an NFkB/ELAM-1 composite promoter comprising five NFkB sites combined with the proximal ELAM-1 promoter. TLR signaling leads to the translocation of NFkB and activation of the promoter results in expression of the SEAP gene. TLR7-specific activation was assessed by determining the level of SEAP produced following overnight incubation of the cells at 37° C. with the standard compound in the presence of 0.1% (v/v) dimethylsulfoxide (DMSO). Concentration dependent induction of SEAP production by compounds was expressed as the concentration of compound which produced half of the maximal level of SEAP induction for that compound (EC50).

hERG potassium channel = hERG potassium channel (Homo sapiens (Human), UniProt Q12809); assay: hERG Analysis - Method 2 (QPATCH HT, CHO-hERG cells); assay type: cell-based; details: half-maximal inhibition concentration, 22±2° C.
hERG potassium channel, sequence (Q12809 whole entry): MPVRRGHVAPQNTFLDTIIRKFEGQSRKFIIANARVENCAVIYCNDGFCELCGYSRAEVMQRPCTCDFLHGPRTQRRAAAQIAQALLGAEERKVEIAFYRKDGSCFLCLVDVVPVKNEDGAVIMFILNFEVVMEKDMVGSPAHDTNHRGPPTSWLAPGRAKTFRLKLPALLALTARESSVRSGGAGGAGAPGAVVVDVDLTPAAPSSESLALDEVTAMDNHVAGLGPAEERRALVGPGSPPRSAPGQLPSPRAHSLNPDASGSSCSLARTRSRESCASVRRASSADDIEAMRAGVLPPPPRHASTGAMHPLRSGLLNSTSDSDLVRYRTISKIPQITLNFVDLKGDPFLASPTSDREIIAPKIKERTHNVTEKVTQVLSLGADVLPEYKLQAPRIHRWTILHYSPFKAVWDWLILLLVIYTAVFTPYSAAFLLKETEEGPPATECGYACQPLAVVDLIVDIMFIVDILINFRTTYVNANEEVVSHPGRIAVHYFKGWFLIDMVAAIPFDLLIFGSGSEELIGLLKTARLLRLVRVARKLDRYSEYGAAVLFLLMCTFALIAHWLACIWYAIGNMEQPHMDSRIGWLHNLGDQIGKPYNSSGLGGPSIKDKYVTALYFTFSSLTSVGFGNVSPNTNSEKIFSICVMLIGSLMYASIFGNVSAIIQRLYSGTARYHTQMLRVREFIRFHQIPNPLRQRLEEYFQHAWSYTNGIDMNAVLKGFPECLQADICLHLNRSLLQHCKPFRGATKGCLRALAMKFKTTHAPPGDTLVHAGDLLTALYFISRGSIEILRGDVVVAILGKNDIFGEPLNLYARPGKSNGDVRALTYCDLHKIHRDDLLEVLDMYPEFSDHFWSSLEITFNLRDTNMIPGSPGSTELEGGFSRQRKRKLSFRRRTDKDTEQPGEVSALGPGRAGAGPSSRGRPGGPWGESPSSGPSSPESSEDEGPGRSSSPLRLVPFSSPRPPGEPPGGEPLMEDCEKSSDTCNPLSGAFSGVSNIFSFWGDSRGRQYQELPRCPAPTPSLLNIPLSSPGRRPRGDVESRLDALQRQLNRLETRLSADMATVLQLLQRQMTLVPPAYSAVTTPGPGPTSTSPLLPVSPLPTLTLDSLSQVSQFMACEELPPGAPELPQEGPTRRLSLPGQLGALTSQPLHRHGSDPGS
Procedure: The hERG potassium current was measured in a hERG-stably-expressing Chinese hamster ovary K1 (CHO) cells. The experiments were performed using an automated planar patch-clamp system QPATCH HT (Sophion Bioscience A/S). The application of pressure for forming gigaseals and whole-cell patch clamp configuration were established using the QPATCH assay software. Patch-clamp experiments were performed in voltage-clamp mode and whole-cell currents were recorded from individual cells. The following stimulation protocol was applied to investigate the effects of compounds on hERG potassium channel: The membrane potential was held at −80 mV and repetitively (every 15 s) depolarized to +20 mV for 5 s after the pulse to −50 mV for 20 ms served to define the baseline, followed by repolarizing step to −50 mV for 5 s to evaluate of the tail current amplitude. Experiments were conducted at room temperature (22±2° C.).
Effects of compounds were determined from cumulative applications of increasing 4 concentrations and calculated as percent of blocked current. The data points were fitted with Hill equation to calculate half-maximal inhibition concentrations. The test solution includes: Extracellular solution (mM): 2 mM of CaCl2, 1 mM of MgCl2, 10 mM of HEPES, 4 mM of KCl, 145 mM of NaCl, and 10 mM of Glucose; and Intracellular solution (mM): 5.4 mM of CaCl2, 1.8 mM of MgCl2, 10 mM of HEPES, 31 mM of KOH, 10 mM of EGTA, 120 mM of KCl, and 4 mM of ATP.

CCC[C@@H](CCO)Nc1nc(N)nc(C)c1Cc1ccc(CN(CC(=O)O)CC(F)(F)F)cc1OC [Example 4, (S)-2-((4-((2-amino-4-(1-hydroxyhexan-3-ylamino)-6-methylpyrimidin-5-yl)methyl)-3-methoxybenzyl)(2,2,2-trifluoroethyl)amino)acetic acid]
Survival period (time for tumours to reach 4 times the volume at treatment) (CT26 mouse tumour cells): survived significantly longer
EC50 (human TLR8): > 10 µM
Tumour growth inhibition (Renca mouse tumour cells): inhibited tumour growth
EC50 (human TLR7): 0.1 µM
IC50 (hERG potassium channel): > 10 µM
